Measurements from patent US9408915B2, “Tolvaptan solid dispersion and its preparation method” (Jiangsu Hengrui Medicine Co., Ltd., priority 2010, dated 2016).

Experiments:
[1] = Dissolution test (paddle blade method, 0.2% w/v sodium dodecylsulfate aqueous solution); assay type: physicochemical; conditions: powder equal to 100 mg tolvaptan, paddle 100 rpm
Procedure: Q.S. (the amount is equal to 100 mg of tolvaptan) of the powder prepared in Examples 1-10, Comparative examples and the control (crystal material with a particle diameter distribution of 1400 μm and an average diameter of 83 μm) were added to the dissolution tester. 0.2% w/v sodium dodecylsulfate aqueous solution was used as the solvent. The dissolution test was performed using the paddle blade method with the rotation speed of 100 rpm. A sample was taken at 5 min, 10 min, 15 min, 20 min, 30 min, and 45 min to determine the absorbance and calculate the dissolution rate.
The determination of the dissolution rate (%) is as follows: dissolve a certain amount of tolvaptan in methanol; transfer 5 ml of the solution to a 100-ml volumetric flask and then dilute with 0.2% (w/v) sodium dodecylsulfate aqueous solution to give a 20 μg/ml standard solution; the absorbance of the standard solution and the sample solution was determined at wavelengths of 269 nm and 330 nm. The dissolution rate can be obtained by the ratio of the difference of the absorbance of standard solution and the control and the difference of the absorbance of the sample solution and control.

[2] = white crystal or crystalline powder; cited from earlier work

Row | SMILES | dissolution rate ([1]; 5 min) | dissolution rate ([1]; 10 min) | dissolution rate ([1]; 15 min) | dissolution rate ([1]; 20 min) | dissolution rate ([1]; 30 min) | dissolution rate ([1]; 45 min) | solubility in water [2]
1 | Cc1ccccc1C(=O)Nc1ccc(C(=O)N2CCC[C@@H](O)c3cc(Cl)ccc32)c(C)c1 [compound 1] | 15.9% | 19.1% | 22.2% | 25.8% | 30.7% | 42.8% | –
2 | Cc1ccccc1C(=O)Nc1ccc(C(=O)N2CCC[C@@H](O)c3cc(Cl)ccc32)c(C)c1 [Tolvaptan, 7-chloro-5-hydroxy-1-[2-methyl-4-(2-methylbenzoylamino)benzoyl]-2,3,4,5,-tetrohydro-1H-benzoazepine] | – | – | – | – | – | – | only slightly soluble in water
